Source: patent publication US9018395B2, “Pyrazolopyridine and pyrazolopyrimidine derivatives as melanocortin-4 receptor modulators” (Université de Montréal, priority 2011, dated 2015)

Target: T1, wild-type human melanocortin 4 receptor (WT-hMC4R) (Homo sapiens, UniProt P32245)
T1 construct: expressed in transfected cells; cDNA from UMR cDNA resource center
Experiment: Cyclic AMP assay (HTRF), antagonist competition against NDP-α-MSH
Assay type: cell-based
Details: HEK293T cells expressing double-tagged WT-hMC4R; cAMP accumulation; 1 hour compound then 4 nM NDP-α-MSH 30 min
Protocol: Intracellular cyclic 3′-5′ adenosine monophosphate (cAMP) accumulation was measured using a competitive immunoassay based on HTRF (Homogeneous Time-Resolved Fluorescence) technology (cAMP dynamic-2, Cis-Bio).
HEK293T stable cell line expressing double-tagged WT-hMC4R construct were collected and washed in cAMP buffer (1XD-PBS pH 7.4, 0.1% glucose). 40,000 cells/well were then dispensed in 96-well plates in cAMP buffer [1XD-PBS, 1% BSA, 0.1% Glucose, 0.75 mM 3-isobutyl-1methyl-xanthine (IBMX, Sigma)] and incubated either for antagonist competition assay: 1 hour at 37° C. with various concentrations of compound [0.01 nM-10 μM] followed by 30 min incubation at 37° C. with 4 nM of NDP-α-MSH (Sigma) or for agonist assay: 1 hour at 37° C. with various concentrations of compound [0.01 nM-10 μM]. 10,000 cells were transferred in 384-well plates, lysed and incubated with cAMP labeled with the dye d2 and anti-cAMP M-Antibody labeled with Cryptate following the manufacturer's protocol.
Reading of HTRF signal was performed on Artemis TR-FRET plate reader (Cosmo Bio).
All curve fitting was conducted using non-linear regression analyses from PRISM (version 4.0c, GraphPad Inc.) and the determination of Rmax and EC50 or IC50 parameters were obtained from sigmoidal dose-response phase (variable slope) equation.
A cDNA encoding a wild-type human MC4R with a 3 tandem copies of Hemaglutinine (HA) epitote sequence from UMR cDNA resource center was modified using known techniques in the art (e.g., PCR, cloning) to fused in frame at the C-terminal a venus-Yellow Fluorescent Protein (YFP) cDNA.
The resultant cDNA was then subcloned in eukaryotic expression vector, e.g. pcDNA 3.1(+) (Invitrogen).
The double tagged WT-hMC4R was transfected in HEK293T cells with lipofectamine (Invitrogen) following the manufacturer's instructions and permanently transfected clonal cell lines were selected by resistance to the neomycin analog G418.
HEK293T stable cell line expressing wild-type human melanocortin 4 receptor (WT-hMC4R) containing an N-terminal 3xHA epitope tag and an intracellular C-terminal venus-yellow fluorescent protein (v-YFP) were maintained at 37° C. in humidified air containing 5% CO2 in Dulbecoo's modified Eagle's medium (DMEM) supplemented with 10% fetal bovine serum (FBS), 100 U/ml penicillin/streptomycin (DMEM complete/10% FBS). Cells were generally at 70%-80% confluence on the day of assay.

T1 sequence (P32245 whole entry): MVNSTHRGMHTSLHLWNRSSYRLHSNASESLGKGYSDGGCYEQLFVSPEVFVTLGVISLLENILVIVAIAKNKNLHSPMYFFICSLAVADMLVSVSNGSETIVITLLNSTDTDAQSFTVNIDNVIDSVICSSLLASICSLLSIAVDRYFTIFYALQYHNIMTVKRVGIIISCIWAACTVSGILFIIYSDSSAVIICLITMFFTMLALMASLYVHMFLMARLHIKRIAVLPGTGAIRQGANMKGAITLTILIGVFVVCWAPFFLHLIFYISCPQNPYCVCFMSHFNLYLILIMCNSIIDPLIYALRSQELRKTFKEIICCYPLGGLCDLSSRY

IC50	SMILES
5 to 15 µM	COc1ccc(-c2nn3ccc(C(=O)N(CCC(C)C)CCC(C)C)cc3c2/C=C/CN(C)C)cc1 [Example 17]
< 0.5 µM	COc1ccc(-c2nn3ccc(C(=O)N(CCC(C)C)CCC(C)C)cc3c2CCCN2CCCCC2)cn1 [Example 164, N,N-diisopentyl-2-(6-methoxypyridin-3-yl)-3-(3-(piperidin-1-yl)propyl)pyrazolo[1,5-a]pyridine-5-carboxamide]
< 0.5 µM	COC(=O)c1cccc(-c2nn3ccc(C(=O)N(CCC(C)C)CCC(C)C)cc3c2CCCN2CCCCC2)c1 [Example 31]
1 to 5 µM	CCCCN(CCCC)C(=O)c1ccn2nc(-c3ccc(OC)cc3)c(CCCN3CCCCC3)c2c1 [Example 1, N,N-Dibutyl-2-(4-methoxyphenyl)-3-(3-(piperidin-1-yl)propyl)pyrazolo[1,5-a]pyridine-5-carboxamide]
1 to 5 µM	CC(C)CCN(CCC(C)C)C(=O)c1ccn2nc(-c3ccccc3)c(CCCN3CCCCC3)c2c1 [Example 55]
1 to 5 µM	COC(=O)c1ccccc1-c1nn2ccc(C(=O)N(CCC(C)C)CCC(C)C)cc2c1/C=C/CN1CCCCC1 [Example 36]
< 0.5 µM	CC(C)CCN(CCC(C)C)C(=O)c1ccn2nc(-c3cccc(C#N)c3)c(CCCN3CCCCC3)c2c1 [Example 92]
1 to 5 µM	CC(C)CCN(CCC(C)C)C(=O)c1ccn2nc(-c3ccc(C(C)(C)C)cc3)c(/C=C/CN3CCCCC3)c2c1 [Example 5]
5 to 15 µM	CCCCN(C/C=C/c1c(-c2ccc(OC)cc2)nn2ccc(C(=O)N(CCCC)CCCC)cc12)CCCC [Example 110]
1 to 5 µM	COc1ccc(-c2nn3ccc(C(=O)N(CCC(C)C)CCC(C)C)cc3c2C#CCN2CCCCC2)cc1 [Example 109]
1 to 5 µM	CC(C)CCN(CCC(C)C)C(=O)c1ccn2nc(-c3ccc(OCc4ccccc4)cc3)c(/C=C/CN3CCCCC3)c2c1 [Example 76]
0.5 to 1 µM	CCCCN(CCCC)C(=O)c1ccn2nc(-c3ccc(C)cc3)c(/C=C/CN3CCCCC3)c2c1 [Example 63]
< 0.5 µM	COc1cc(-c2nn3ccc(C(=O)N(CCC(C)C)CCC(C)C)cc3c2CCCN2CCCCC2)cc(OC)c1OC [Example 67]
5 to 15 µM	COc1ccc(-c2nn3ccc(C(=O)N(CCC(C)C)CCC(C)C)cc3c2/C=C/CNCc2ccccc2)cc1 [Example 150]
0.5 to 1 µM	COC(=O)c1ccc(-c2nn3ccc(C(=O)N(CCC(C)C)CCC(C)C)cc3c2/C=C/CN2CCCCC2)cc1 [Example 43, (E)-Methyl 4-(5-(diisopentylcarbamoyl)-3-(3-(piperidin-1-yl)prop-1-en-1-yl)pyrazolo[1,5-a]pyridin-2-yl)benzoate]
1 to 5 µM	CCCCCN(CCCCC)C(=O)c1ccn2nc(-c3ccc(F)cc3)c(CCCN3CCCCC3)c2c1 [Example 50]
0.5 to 1 µM	CC(C)CCN(CCC(C)C)C(=O)c1ccn2nc(-c3ccc(F)cc3)c(/C=C/CN3CCCCC3)c2c1 [Example 52]
1 to 5 µM	COc1ccc(-c2nn3ccc(C(=O)N(CCC(C)C)CCC(C)C)cc3c2/C=C/CN2CCOCC2)cc1 [Example 123]
1 to 5 µM	CCOC(=O)c1ccc(NC(=O)c2nn3ccc(C(=O)N(CCC(C)C)CCC(C)C)cc3c2CCCN2CCCCC2)cc1 [Example 125]
0.5 to 1 µM	CC(=O)c1ccc(-c2nn3ccc(C(=O)N(CCC(C)C)CCC(C)C)cc3c2CCCN2CCCCC2)cc1 [Example 47, 2-(4-Acetylphenyl)-N,N-diisopentyl-3-(3-(piperidin-1-yl)propyl)pyrazolo[1,5-a]pyridine-5-carboxamide]
< 0.5 µM	COc1ccc(-c2nn3ccc(C(=O)N(CCC(C)C)CCC(C)C)cc3c2/C=C/CN2CCCCC2)cc1OC [Example 14]
< 0.5 µM	Cc1ccc(-c2nn3ccc(C(=O)N(CCC(C)C)CCC(C)C)cc3c2/C=C/CN2CCCCC2)cc1 [Example 64]
5 to 15 µM	CCOc1ccc(-c2nn3ccc(C(=O)N(CCC(C)C)CCC(C)C)cc3c2/C=C/CN2CCOCC2)cc1 [Example 147]
< 0.5 µM	CN=C(c1ccn2nc(-c3ccccc3)c(CCCN3CCCCC3)c2c1)N(CCC(C)C)CCC(C)C [Example 165, N,N-diisopentyl-N′-methyl-2-phenyl-3-(3-(piperidin-1-yl)propyl)pyrazolo[1,5-a]pyridine-5-carboximidamide]
0.5 to 1 µM	COc1ccc(-c2nn3ccc(C(=O)N(CCC(C)C)CCC(C)C)cc3c2/C=C/CN2CCCCC2)cc1 [Example 3]
1 to 5 µM	CC(C)CCN(CCC(C)C)C(=O)c1ccn2nc(C(C)(C)C)c(/C=C/CN3CCCCC3)c2c1 [Example 128]

IC50	SMILES
< 0.5 µM	COC(=O)c1cccc(-c2nn3ccc(C(=O)N(CCC(C)C)CCC(C)C)cc3c2/C=C/CN2CCCCC2)c1 [Example 30]
5 to 15 µM	COc1ccc(-c2nn3ccc(C(=O)N(CCC(C)C)CCC(C)C)nc3c2CCCN2CCCC2)cc1 [Example 104]
0.5 to 1 µM	COC(=O)c1ccc(-c2nn3ccc(C(=O)N(CCC(C)C)CCC(C)C)cc3c2CCCN2CCCCC2)cc1 [Example 44]
1 to 5 µM	CCCCCN(CCCCC)C(=O)c1ccn2nc(-c3ccc(OC)cc3)c(CCCN3CCCCC3)c2c1 [Example 21]
< 0.5 µM	COc1ccc(-c2nn3ccc(C(=O)N(CCC(C)C)CCC(C)C)cc3c2/C=C/CN2CCC(C)CC2)cc1 [Example 145]
1 to 5 µM	CC(=O)c1ccc(-c2nn3ccc(C(=O)N(CCC(C)C)CCC(C)C)cc3c2CCCN2CCOCC2)cc1 [Example 121]
< 0.5 µM	Cc1ccc(-c2nn3ccc(C(=O)N(CCC(C)C)CCC(C)C)cc3c2CCCN2CCCCC2)cc1 [Example 61]
5 to 15 µM	CNC/C=C/c1c(-c2ccc(OC)cc2)nn2ccc(C(=O)N(CCC(C)C)CCC(C)C)cc12 [Example 153]
< 0.5 µM	CC(C)CCN(CCC(C)C)C(=O)c1ccn2nc(-c3cccc(C(N)=O)c3)c(CCCN3CCCCC3)c2c1 [Example 90]
5 to 15 µM	COc1ccc(-c2nn3ccc(C(=O)N(CCC(C)C)CCC(C)C)cc3c2CCCN)cc1 [Example 154]
1 to 5 µM	COc1ccc(Cl)cc1-c1nn2ccc(C(=O)N(CCC(C)C)CCC(C)C)cc2c1CCCN1CCCC1 [Example 116]
5 to 15 µM	CNCCCc1c(-c2ccc(OC)cc2)nn2ccc(C(=O)N(CCC(C)C)CCC(C)C)cc12 [Example 157]
1 to 5 µM	CC(C)CCN(CCC(C)C)C(=O)c1ccn2nc(Br)c(/C=C/CN3CCCCC3)c2c1 [Example 132]
1 to 5 µM	CCCCN(CCCC)C(=O)c1ccn2nc(-c3cc(OC)cc(OC)c3)c(CCCN3CCCCC3)c2c1 [Example 87]
1 to 5 µM	COc1ccc(-c2nn3ccc(C(=O)N(CCC(C)C)CCC(C)C)cc3c2CCCN2CCCCC2)cc1 [Example 2]
1 to 5 µM	CC(C)CCN(CCC(C)C)C(=O)c1ccn2nc(-c3ccccc3Br)c(/C=C/CN3CCCCC3)c2c1 [Example 34]
0.5 to 1 µM	CC(C)CCN(CCC(C)C)C(=N)c1ccn2nc(-c3ccccc3)c(CCCN3CCCCC3)c2c1 [Example 127]
0.5 to 1 µM	CC(C)CCN(CCC(C)C)C(=O)c1ccn2nc(-c3ccccc3)c(/C=C/CN3CCCCC3)c2c1 [Example 58]
5 to 15 µM	CC(C)CCN(CCC(C)C)C(=O)c1ccn2nc(C(=O)Nc3ccc(C(=O)N4CCOCC4)cc3)c(CCCN3CCCCC3)c2c1 [Example 133]
0.5 to 1 µM	COc1ccc(-c2nn3ccc(C(=O)N(CCC(C)C)CCC(C)C)cc3c2CCCN2CCCOCC2)cc1 [Example 162]
< 0.5 µM	COc1ccc(Nc2nn3ccc(C(=O)N(CCC(C)C)CCC(C)C)cc3c2/C=C/CN2CCCCC2)cc1 [Example 138, (E)-N,N-diisopentyl-2-((4-methoxphenyl)amino)-3-(3-(piperidin-1-yl)prop-1-en-1-yl)pyrazolo[1,5-a]pyridine-5-carboxamide]
1 to 5 µM	CCOC(=O)c1ccc(NC(=O)c2nn3ccc(C(=O)N(CCC(C)C)CCC(C)C)cc3c2/C=C/CN2CCCCC2)cc1 [Example 122]
5 to 15 µM	CC(C)CCN(CCC(C)C)C(=O)c1ccn2nc(C(=O)N3CCOCC3)c(CCCN3CCCCC3)c2c1 [Example 141, N,N-diisopentyl-2-(morpholine-4-carbonyl)-3-(3-(piperidin-1-yl)propyl)pyrazolo[1,5-a]pyridine-5-carboxamide]
5 to 15 µM	CCCCN(CCCC)C(=O)c1ccn2nc(-c3ccc(C(C)(C)C)cc3)c(/C=C/CN3CCCCC3)c2c1 [Example 7]
1 to 5 µM	CCCCCN(CCCCC)C(=O)c1ccn2nc(-c3ccc(OC)cc3)c(/C=C/CN3CCCCC3)c2c1 [Example 19]
< 0.5 µM	CC(C)CCN(CCC(C)C)C(=O)c1ccn2nc(-c3ccc(-c4noc(-c5ccncc5)n4)cc3)c(CCCN3CCCCC3)c2c1 [Example 139]
